Results from publication PMC4356558, “Prediction of Chemical Respiratory Sensitizers Using GARD, a Novel In Vitro Assay Based on a Genomic Biomarker Signature” (PLoS ONE, 2015).
In brackets after ≈: the same amount, converted by molar mass. Like-named read-outs stand apart in the source and are kept apart here.

Columns and labels:
[1] = tested on: GRPS genomic biomarker signature (389 transcripts) in MUTZ-3 cells; test: GARD assay with GARD Respiratory Prediction Signature (GRPS), SVM classification of respiratory sensitizers
Experimental: (§1) The human acute myelomonocytic leukemia cell line MUTZ-3[68, 69] was obtained from Leibniz-Institut DSMZ-Deutsche Sammlung von Mikroorganismen und Zellkulturen (DSMZ, Braunschweig, Germany). Maintenance of cells, chemical stimulation of MUTZ-3 and all subsequent isolation of mRNA and preparation of cDNA were performed as previously described. In short, a phenotypic control of MUTZ-3 was performed using flow cytometry prior to chemical stimulation to ensure cells were in an immature state. The following FITC-conjugated mouse monoclonal antibodies (mAbs) were used: CD1a (DakoCytomation, Glostrup, Denmark), CD34, CD86, HLA-DR, IgG1 (BD Biosciences, Franklin Lakes, NJ). The following PE-conjugated mouse monoclonal antibodies were used: CD14 (DakoCytomation), CD54, CD80, IgG1 (BD Biosciences). Cell viability was determined using Propidium Iodide (BD Biosciences) staining. Samples were run on FACSCanto II instrument. Data was acquired using FACS Diva software (BD Biosciences) and analyzed using FCS Express V4 (De Novo Software, Los Angeles, CA). Gating was performed to exclude cell debris and non-viable cells based on forward- and side-scattering properties and quadrants established using isotype-controls. During chemical exposure, cells were seeded at 200.000 cells/ml in 24-well plates and exposed to chemical compound at the GARD input concentration. Stimulated cells were harvested after 24h incubation at 37 °C, 5% CO2 and RNA was isolated with TRIzol reagent (Life Technologies, Carlsbad, CA) using standardized protocols provided by the manufacturer. In parallel, a control of the maturity state of the cells was performed by flow cytometric analysis of CD86. Preparation of cDNA and hybridization, washing and scanning of the Human Gene 1.0 ST Arrays (Affymetrix, Santa Clara, CA, USA) was performed, according to standardized protocols provided by the manufacturer (Affymetrix).
Gene expression data obtained from the Human Gene 1.0 ST Arrays were normalized using the Single-Channel array normalization (SCAN) algorithm, and potential batch effects between different set of experiments were adjusted using the ComBat empirical bayes method. Normalizations and batch adjustments were performed in R statistical software using the open software Bioconductor v2.14 [73] with the additional software packages SCAN.UPC [70] and sva. Normalized data was imported into Qlucore Omics Explorer 3.0 (Qlucore AB, Lund, Sweden) and visualized using Principal Component Analysis (PCA). Predictors were selected from a one-way ANOVA p-value filtration, using false discovery rate (FDR) to adjust for multiple hypothesis testing, comparing respiratory sensitizers and non-respiratory sensitizers. […] The Backward Elimination algorithm was modified to minimize the Kullback-Leibler error [53] rather than maximizing the Area Under the Receiver Operating Characteristic (AUC ROC), in order to enable signature optimization in cases where the AUC ROC reaches 1.0. […] The script for Backwards Elimination was programmed in R, with the additional package e1071 [78]. The method by which the predictive genomic biomarker signature was established was validated using cross-validation based on Support Vector Machines (SVM), based on a linear kernel, as described previously. In short, the training dataset was randomly divided into a new cross-validation training dataset comprising 70% of the stimulations, and a cross-validation test dataset comprising 30% of the stimulations. In addition, care was taken to maintain the same proportion between respiratory sensitizers and non-respiratory sensitizers as in the complete training dataset. A new predictive genomic biomarker signature was identified from the cross-validation training dataset using one-way ANOVA p-value filtration as described above.

MUTZ-3 cells = test: Chemical cytotoxicity, concentration yielding 90% relative viability (Rv90), propidium iodide staining
Excerpt: A panel of 32 reference chemicals comprising a selection of 10 well characterized respiratory sensitizers and 22 non-respiratory sensitizers, collectively termed the training dataset, were used for cell stimulations in order to establish the predictive genomic biomarker signature. […] Additionally, a panel of 25 chemicals, including 6 respiratory sensitizers and 19 non-respiratory sensitizers, collectively termed the independent test dataset, were used for cell stimulations in order to form an independent testset for validation of the identified predictive genomic biomarker signature. The […] comprised both control chemicals, included during the training of the model, as well as chemicals previously unseen during training of the model. […] All chemicals were purchased from Sigma-Aldrich (St. Louis, MO, USA). Chemicals were dissolved and diluted into GARD input concentration in either water or DMSO prior to stimulation of cells. For chemicals dissolved in DMSO, the in-well concentration of DMSO was 0.1%. Monitoring of chemical cytotoxicity and establishment of GARD input concentration for each chemical compound was performed as previously described. […] Toxic compounds were used at a concentration yielding 90% relative viability (Rv90). The criterion that was first met determined the GARD input concentration for each compound.
as §1

physchem = conditions: aqueous buffer, kinetic from dmso stock
[2] = Max solubility of chemicals in cell media (establishment of GARD input concentration); conditions: for Max solubility: dissolved in vehicle (water or DMSO)
[3] = tested on: CD86 expression of MUTZ-3 cells; test: CD86 cell surface expression of MUTZ-3 cells following chemical stimulation, flow cytometry; assay type: cell-based, human; conditions: 24 h stimulation at GARD input concentration; students t-test, p<0.05
[4] = tested on: GPS genomic biomarker signature (200 genes) in MUTZ-3 cells
Excerpt: The GARD assay is based on measurements of transcriptional levels of a genomic biomarker signature (GARD Prediction Signature, or GPS) comprising 200 genes in the myeloid human cell line MUTZ-3 [43–45] using transcriptome-wide DNA microarray technology.
The human acute myelomonocytic leukemia cell line MUTZ-3[68, 69] was obtained from Leibniz-Institut DSMZ-Deutsche Sammlung von Mikroorganismen und Zellkulturen (DSMZ, Braunschweig, Germany). Maintenance of cells, chemical stimulation of MUTZ-3 and all subsequent isolation of mRNA and preparation of cDNA were performed as previously described [41, 42]. In short, a phenotypic control of MUTZ-3 was performed using flow cytometry prior to chemical stimulation to ensure cells were in an immature state. The following FITC-conjugated mouse monoclonal antibodies (mAbs) were used: CD1a (DakoCytomation, Glostrup, Denmark), CD34, CD86, HLA-DR, IgG1 (BD Biosciences, Franklin Lakes, NJ). The following PE-conjugated mouse monoclonal antibodies were used: CD14 (DakoCytomation), CD54, CD80, IgG1 (BD Biosciences). Cell viability was determined using Propidium Iodide (BD Biosciences) staining. Samples were run on FACSCanto II instrument. Data was acquired using FACS Diva software (BD Biosciences) and analyzed using FCS Express V4 (De Novo Software, Los Angeles, CA). […]

[5] = replicate stimulation 1, 24 h at GARD input concentration, independent test dataset, > 0 = respiratory sensitizer
[6] = replicate stimulation 2, 24 h at GARD input concentration, independent test dataset, > 0 = respiratory sensitizer
[7] = replicate stimulation 3, 24 h at GARD input concentration, independent test dataset, > 0 = respiratory sensitizer
[8] = respiratory sensitizer if any of replicate stimulations has SVM decision value > 0
[9] = concentration yielding 90% relative viability, MUTZ-3, training dataset

| Structure (SMILES) | SVM decision value 1 [1, 5] | SVM decision value 2 [1, 6] | SVM decision value 3 [1, 7] | Classification, Pos if 1 sample > 0 [1, 8] | further results |
| --- | --- | --- | --- | --- | --- |
| CCCCCCCCCCCCOS(=O)(=O)[O-].[Na+] [Sodium dodecyl sulphate] | – | – | – | – | Classification, Pos if 1 sample > 0 [1]: Non-sensitizer; SVM decision value 1 [1]: −1.49; SVM decision value 2 [1]: −0.80; SVM decision value 3 [1]: −1.30; Rv90 (MUTZ-3 cells): 200 µM |
| O=C=NCCCCCCN=C=O [Hexamethylen diisocyanate] | – | – | – | – | solubility (physchem): 100 µM (≈ 16.8 µg/mL) |
| C=O [Formaldehyde] | – | – | – | – | Rv90 (MUTZ-3 cells): 80 µM |
| Clc1ccccc1 [Chlorobenzene] | −1.03 | −0.76 | −1.15 | Sensitizer | SVM decision value 4 ([1]; replicate stimulation 4, 24 h at GARD input concentration, independent test dataset, > 0 = respiratory sensitizer): 0.24; SVM decision value 5 ([1]; replicate stimulation 5, 24 h at GARD input concentration, independent test dataset, > 0 = respiratory sensitizer): 0.06 |
| CCCCO [1-Butanol] | – | – | – | – | Classification, Pos if 1 sample > 0 [1]: Sensitizer; SVM decision value 1 [1]: −0.32; SVM decision value 2 [1]: 0.12 |
| C=CCc1ccc(O)c(OC)c1 [Eugenol] | −1.67 | −1.53 | −1.51 | Non-sensitizer | Rv90 (MUTZ-3 cells; concentration yielding 90% relative viability, MUTZ-3, independent test dataset): 300 µM |
| O=C1OC(=O)c2ccccc21 [Phtalic Anhydride] | 0.20 | −0.12 | – | Sensitizer | Max solubility ([2]; chemicals of the independent test dataset): 200 µM; Max solubility ([2]; reference compounds of the training dataset): 200 µM |
| C=CC(=O)OCCO [2-Hydroxyethyl acrylate] | – | – | – | – | Rv90 (MUTZ-3 cells; [9]): 100 µM |
| O=CCCCC=O [Glutaraldehyde] | – | – | – | – | Rv90 (MUTZ-3 cells; [9]): 10 µM; Up-regulation of CD86 in comparison to unstimulated cells [3]: statistically significant |
| O=CC=O [Glyoxal] | −1.02 | −0.69 | −0.56 | Non-sensitizer | Rv90 (MUTZ-3 cells): 300 µM |
| C1CNCCN1 [Piperazine] | −0.05 | −0.12 | – | Non-sensitizer | GRPS prediction compared with true identity ([1]; validation using the independent dataset): false negatives; Prediction in the GARD assay (skin sensitization) [4]: accurately predicted as skin sensitizers |
| OCC=Cc1ccccc1 [Cinnamyl alcohol] | −0.57 | – | −1.26 | Non-sensitizer | solubility ([2]; aqueous buffer, kinetic from dmso stock): 500 µM (≈ 67.1 µg/mL) |
| Cc1ccc(N=C=O)cc1N=C=O [Toluendiisocyanate] | – | – | – | – | solubility (physchem): 40 µM (≈ 6.97 µg/mL) |
| Oc1cccc(O)c1 [Resorcinol] | −1.01 | −0.99 | −1.40 | Non-sensitizer | – |
| O=Cc1ccccc1 [Benzaldehyde] | −0.79 | −0.87 | −0.70 | Non-sensitizer | – |
